Reference: publication PMC9428149, “Tackling recalcitrant Pseudomonas aeruginosa infections in critical illness via anti-virulence monotherapy” (Nature Communications, 2022)
In brackets after ≈: the same amount, converted by molar mass. Read-outs that look alike come from different tables or passages of the source.

Assays:
[1] = test system: 16 MDR P. aeruginosa clinical isolates; assay: Pyocyanin production in MDR clinical isolates; details: Pseudomonas aeruginosa, 18 h, Control about 100, replicates
Experimental: The over-day culture was grown to OD600nm 1.5., diluted again at 1:10,000 in 5 mL LB and incubated with 10 μM of the test compound or the vehicle control for 18 hours at 37 °C and 200 rpm in an incubator shaker. After 18 h, 1 mL of culture was centrifuged for 2 min at 20.000 x g. The supernatant was transferred to a new tube, 200 μL of this were loaded in a flat-bottom 96-well plate, and the pyocyanin levels were quantified by measuring at OD690nm in the infinite F200 plate reader using the Magellan software (Tecan, Switzerland). The same procedure was also followed for the pyocyanin production assessment for all the P. aeruginosa clinical isolates assessed in this study. The percent of pyocyanin was calculated compared to the PA14 culture grown in the absence of compounds.
Pyocyanin production was measured in 16 P.
aeruginosa clinical isolates 18hr post-growth in the presence or absence of 10 µM of each NAM
compound. The percent of pyocyanin production was calculated by comparing the same strain grown
in the presence of the vehicle control. b.

[2] = test system: pyocyanin production in PA14; assay: Pyocyanin production assay; details: Pseudomonas aeruginosa; for activity at 50 µM: PA14, 18 h, read-out: % Production Pyocyanin; for IC50: PA14, read-out: IC50 pyocyanin production
[3] = test system: MvfR-regulated small molecules in PA14; assay: Production of HAQs, 2-AA, DHQ and AA in PA14 cultures (LC-MS); details: Pseudomonas aeruginosa
PA14 AT/P cells = assay: AT/P cells formation assay in PA14; format: cell-based, Pseudomonas aeruginosa; details: for inhibition at 10 µM: Pseudomonas aeruginosa, PA14, 24 h, read-out: inhibition of AT/P cells formation
MvfR protein (MvfRC87) = target: T1, MvfR protein (MvfRC87) (Pseudomonas aeruginosa, UniProt Q9I4X0); format: binding; details: SPR
T1 construct: The MvfRC87 protein purified as in Xiao et. al., 2006; made in house
In short: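 MvfRC87 amine-coupled to a CM7 chip (3000–5000 RU) and binding measured by SPR. Double-reference-corrected responses 5 s before end of association plotted against concentration, for inhibitor alone and with native ligand PQS, compared with responses calculated for different binding sites.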

[4] = test system: pqsA promoter (PA14 PpqsA-GFPASV); assay: pqsA-GFP reporter expression; format: cell-based, Pseudomonas aeruginosa; details: Pseudomonas aeruginosa; for activity at 50 µM: PA14, read-out: % Production pqsA-GFP; for IC50: PA14, read-out: IC50 pqsA-GFP expression, PA14, 13 concentrations
[5] = test system: mvfR mutant constitutively expressing the pqsABCDE operon; format: cell-based; details: Pseudomonas aeruginosa, control about 100, single replicates (Figure 4a)
[6] = test system: PA14 isogenic mutant ΔmvfR AT/P cells; assay: AT/P cell formation in ΔmvfR mutant (off-target); details: Pseudomonas aeruginosa, PA14, 24 h, read-out: AT/P cell formation, ΔmvfR + compound; PA14 about 100; single replicates (Figure 4b)
[7] = Solubility in iPBS pH 7.4 by HPLC; format: physicochemical; details: isotonic phosphate buffer (iPBS), aqueous with cosolvent or surfactant or cyclodextrin, kinetic from dmso stock; iPBS pH 7.4, HPLC; read-out: Solubility (M) in PBS
In short: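 Compounds from 10 mM DMSO stock shaken 4 h at room temperature in iPBS pH 7.4 (10 mM PBS, 2.7 mM KCl, 140 mM NaCl, 0.05% Tween), then filtered. Concentration measured by HPLC-UV against a known standard solution; solubility given as ratio of compound in test solution to standard.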

ΔmvfR biofilm = assay: Biofilm formation of ΔmvfR mutant (off-target); details: Pseudomonas aeruginosa, PA14, 24 h, read-out: Biofilm formation, ΔmvfR + compound; PA14 about 100; single replicates (Figure 4c)
Experimental: Biofilm was grown in the 96-well microtiter plate at 37 °C for 24 h containing M63 minimal media in the presence of 10 µM of the compounds or vehicle. The biofilm grown with the vehicle was considered as a control. The percentage value was calculated in comparison to the PA14 control. a–c Data represent at least n = 3, each dot on the graph represents one biological replicate. The number of biological replicates for each compound and strain is depicted in the graph. The error bars denote ±SEM.
The overnight grown starter culture was diluted 1:1000 in 5 mL LB media in a glass tube and was incubated at 37 °C and 200 rpm in an incubator shaker until the culture reached an OD600nm 3.0. The culture was then diluted at 1:100 in M63 minimal media supplemented with 0.2% glucose, 0.5% Casamino Acids, and 1 mM MgSO4. Initiation of the Biofilm formation was performed in the 96 well plates; 200 µL of diluted culture was added in the wells with (10 µM) or without compounds. The cultures were allowed to grow at 37 °C in static conditions for 24 hours. Thereafter, planktonic culture was removed from the wells, and wells were washed three times with distilled water (DW). Biofilm was stained with 0.1% crystal violet and incubated for 15 min at room temperature (RT). Access dye was removed from the wells and washed off three times with DW, and 200 µL ethanol: acetone (80:20) was added to the wells. The plate was incubated for 30 min at RT, and the OD was measured by spectrophotometry at 570 nm in the infinite F200 plate reader using the Magellan software (Tecan, Switzerland). Percent biofilm formation was calculated in comparison to PA14 culture that was grown in the absence of compounds.

[8] = read-out: Pyocyanin production relative to Control, clinical isolate LGR-4325
[9] = read-out: Pyocyanin production relative to Control, clinical isolate LGR-4326
[10] = read-out: Pyocyanin production relative to Control, clinical isolate LGR-4327
[11] = read-out: Pyocyanin production relative to Control, clinical isolate LGR-4328
[12] = read-out: Pyocyanin production relative to Control, clinical isolate LGR-4330
[13] = read-out: Pyocyanin production relative to Control, clinical isolate LGR-4331 (first section, r117)
[14] = read-out: Pyocyanin production relative to Control, clinical isolate LGR-4331 (second section, r140)
[15] = read-out: Pyocyanin production relative to Control, clinical isolate LGR-4333
[16] = read-out: Pyocyanin production relative to Control, clinical isolate LGR-4343
[17] = read-out: Pyocyanin production relative to Control, clinical isolate LGR-4344
[18] = read-out: Pyocyanin production relative to Control, clinical isolate LGR-4348
[19] = read-out: Pyocyanin production relative to Control, clinical isolate LGR-4356
[20] = read-out: Pyocyanin production relative to Control, clinical isolate LGR-4362
[21] = read-out: Pyocyanin production relative to Control, clinical isolate LGR-4363
[22] = read-out: Pyocyanin production relative to Control, clinical isolate LGR-4364 (first section, r326)
[23] = read-out: Pyocyanin production relative to Control, clinical isolate LGR-4364 (second section, r349)
[24] = PA14, read-out: % Production 2-AA
[25] = PA14, read-out: % Production AA
[26] = PA14, read-out: % Production DHQ
[27] = PA14, read-out: % Production HHQ
[28] = PA14, read-out: % Production HQNO
[29] = PA14, read-out: % Production PQS
[30] = PA14, read-out: HHQ production inhibition
[31] = PA14, read-out: HQNO production inhibition
[32] = PA14, read-out: PQS production inhibition
[33] = PA14, read-out: inhibition of 2-AA production
[34] = PA14, read-out: inhibition of DHQ production
[35] = read-out: HQNO, ΔmvfR-pqsABCD strain

T1 sequence (Q9I4X0 87-332): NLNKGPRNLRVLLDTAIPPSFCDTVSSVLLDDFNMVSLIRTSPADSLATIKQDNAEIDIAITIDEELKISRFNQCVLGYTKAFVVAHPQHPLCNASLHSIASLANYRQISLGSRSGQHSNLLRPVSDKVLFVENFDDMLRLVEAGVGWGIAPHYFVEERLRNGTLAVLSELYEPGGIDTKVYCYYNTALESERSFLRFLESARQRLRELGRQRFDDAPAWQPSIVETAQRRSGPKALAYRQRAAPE

N#Cc1ccc(NC(=O)CC(=O)Nc2ccc(Cl)cc2)cc1 [D41]
activity at 10 µM [1, 8]: 15.5% | activity at 10 µM [1, 9]: 14.8% | activity at 10 µM [1, 10]: 34.4% | activity at 10 µM [1, 11]: 11.9% | activity at 10 µM [1, 12]: 13.4% | activity at 10 µM [1, 13]: 17.4% | activity at 10 µM [1, 14]: 10.7% | activity at 10 µM [1, 15]: 18.8% | activity at 10 µM [1, 16]: 17.4% | activity at 10 µM [1, 17]: 21.8% | activity at 10 µM [1, 18]: 17.7% | activity at 10 µM [1, 19]: 18.8% | activity at 10 µM [1, 20]: 35.7% | activity at 10 µM [1, 21]: 23.4% | activity at 10 µM [1, 22]: 19.1% | activity at 10 µM [1, 23]: 22% | activity at 50 µM [2]: 6% | IC50 [2]: 1800 nM | activity at 50 µM [3, 24]: 6% | activity at 50 µM [3, 25]: 739% | activity at 50 µM [3, 26]: 11% | activity at 50 µM [3, 27]: 2% | activity at 50 µM [3, 28]: 15% | activity at 50 µM [3, 29]: 9% | inhibition at 50 µM [3, 30]: 89 to 99% | inhibition at 50 µM [3, 31]: 40 to 92% | inhibition at 50 µM [3, 32]: 76 to 97% | inhibition at 50 µM [3, 33]: 82 to 95% | inhibition at 50 µM [3, 34]: 82 to 96% | inhibition at 10 µM (PA14 AT/P cells): ≥ 76% | Response Unit (RU) (MvfR protein (MvfRC87); Concentration 1.00E-05 M): 28.8 RU | Response Unit (RU) (MvfR protein (MvfRC87); Concentration 1.00E-06 M): 22.7 RU | Response Unit (RU) (MvfR protein (MvfRC87); Concentration 1.00E-07 M): 10.6 RU | Response Unit (RU) (MvfR protein (MvfRC87); Concentration 1.00E-08 M): 2.6 RU | Response Unit (RU) (MvfR protein (MvfRC87); Concentration 3.16E-06 M): 26.5 RU | Response Unit (RU) (MvfR protein (MvfRC87); Concentration 3.16E-07 M): 16.9 RU | Response Unit (RU) (MvfR protein (MvfRC87); Concentration 3.16E-08 M): 5.4 RU | activity at 50 µM [4]: 8% | IC50 [4]: 1090 nM | activity at 50 µM [5, 35]: 81.9% | activity at 10 µM [6]: 43.4% | solubility at 4 h [7]: 1.3e-05 M (≈ 4.08 µg/mL) | activity at 10 µM (ΔmvfR biofilm): 25.4%

N#Cc1ccc(NC(=O)CC(=O)Nc2ccc(C#N)cc2)cc1 [D43]
activity at 10 µM [1, 8]: 14.5% | activity at 10 µM [1, 9]: 9.84% | activity at 10 µM [1, 10]: 26.2% | activity at 10 µM [1, 11]: 9.98% | activity at 10 µM [1, 12]: 15% | activity at 10 µM [1, 13]: 16.3% | activity at 10 µM [1, 14]: 11.8% | activity at 10 µM [1, 15]: 15.2% | activity at 10 µM [1, 16]: 24.3% | activity at 10 µM [1, 17]: 25.8% | activity at 10 µM [1, 18]: 12.6% | activity at 10 µM [1, 19]: 20.8% | activity at 10 µM [1, 20]: 23.7% | activity at 10 µM [1, 21]: 13.4% | activity at 10 µM [1, 22]: 21.7% | activity at 10 µM [1, 23]: 19.3% | activity at 50 µM [2]: 8% | IC50 [2]: 1380 nM | activity at 50 µM [3, 24]: 19% | activity at 50 µM [3, 25]: 531% | activity at 50 µM [3, 26]: 34% | activity at 50 µM [3, 27]: 22% | activity at 50 µM [3, 28]: 39% | activity at 50 µM [3, 29]: 24% | inhibition at 50 µM [3, 30]: 89 to 99% | inhibition at 50 µM [3, 31]: 40 to 92% | inhibition at 50 µM [3, 32]: 76 to 97% | inhibition at 50 µM [3, 33]: 82 to 95% | inhibition at 50 µM [3, 34]: 82 to 96% | AT/P cells formation, percentage of control (single replicates) (PA14 AT/P cells; PA14, 10 μg mL^−1 meropenem, 10 µM compound, 24 h, control PA14 + vehicle): 39.10% | inhibition at 10 µM (PA14 AT/P cells): ≥ 51% | Response Unit (RU) (MvfR protein (MvfRC87); Concentration 1.00E-05 M): 29.2 RU | Response Unit (RU) (MvfR protein (MvfRC87); Concentration 1.00E-06 M): 22.5 RU | Response Unit (RU) (MvfR protein (MvfRC87); Concentration 1.00E-07 M): 9.9 RU | Response Unit (RU) (MvfR protein (MvfRC87); Concentration 1.00E-08 M): 2.7 RU | Response Unit (RU) (MvfR protein (MvfRC87); Concentration 3.16E-06 M): 26.7 RU | Response Unit (RU) (MvfR protein (MvfRC87); Concentration 3.16E-07 M): 16.5 RU | Response Unit (RU) (MvfR protein (MvfRC87); Concentration 3.16E-08 M): 5 RU | activity at 50 µM [4]: 8% | IC50 [4]: 970 nM | activity at 50 µM ([5]; read-out: DHQ, ΔmvfR-pqsABCD strain): 103% | activity at 50 µM [5, 35]: 91.3% | activity at 50 µM ([5]; read-out: PQS, ΔmvfR-pqsABCD strain): 99.4% | activity at 10 µM [6]: 30.1% | solubility at 4 h [7]: 1.1e-05 M (≈ 3.35 µg/mL) | activity at 10 µM (ΔmvfR biofilm): 41.4%
